Assay results as given in patent US11472805B2, “Tricyclic compounds and their use as phosphodiesterase inhibitors” (Pfizer Inc., priority 2015, dated 2022).
pIC50: −log10 of the molar value. Where two headings read alike, the source gives them in different places.

Key:
Format in all cases: biochemical
Human PDE4C1 = Human PDE4C1 (Homo sapiens (Human), UniProt Q08493); experiment: PDE4C1 Scintillation Proximity Assay (SPA), inhibition of enzyme activity; settings: read-out: Human PDE4C FL
Protocol: (§1) The PDE4A, PDE4B, PDE4C and PDE4D binding affinity for the compounds of the present invention was determined utilizing the following biological assay(s):
(§2) The recombinant Bacmid was isolated and used to transfect insect cells to generate a viral stock. To generate cell paste for purification, insect cells were infected with the virus stock and cells were harvested 72 hours after infection. Insect cell paste was lysed and after centrifugation, the supernatant was batch bound to Ni-NTA agarose (GE Healthcare) and eluted with 250 mM imidazole. This eluate was diluted with FLAG buffer (50 mM Tris HCL pH 7.5, 100 mM NaCl, 5% Glycerol, 1 mM TCEP with protease inhibitors) and batch bound to ant-FLAG M2 agarose (Sigma) overnight at 4° C. The agarose was packed into a column, washed with buffer and eluted with buffer containing elute using 250 ug/ml Flag-peptide. Fractions were analyzed using SDS-PAGE Coomassie blue staining and pooled based on purity. Pooled fractions were chromatographed on a S200 120 ml column (GE Healthcare) in 50 mM Tris HCL pH 7.5, 150 mM NaCl, 10% Glycerol, 2 mM TCEP with protease inhibitors. PDE4C1 fractions were analyzed by SDS-PAGE Coomassie blue staining, pooled based on purity, dialyzed against 50 mM Tris HCL pH 7.5, 100 mM NaCl, 20% Glycerol, 2 mM TCEP, frozen and stored at −80° C.
(§3) The PDE4A3, PDE4B1, PDE4C1 and PDE4D3 assays use the Scintillation Proximity Assay (SPA) technology to measure the inhibition of human recombinant PDE4A1, PDE4B3, PDE4C1, and PDE4D3 enzyme activity by compounds in vitro. The PDE4A1, PDE4B3, PDE4C1, and PDE4D3 assays are run in parallel using identical parameters, except for the concentration of enzyme ([…]). The assays are performed in a 384-well format with 50 uL assay buffer (50 mM TRIS pH7.5; 1.3 mM MgCl2; 0.01% Brij) containing enough PDE4A3, PDE4B1, PDE4C1, and PDE4D to convert ˜20% of substrate (1 μM cAMP consisting of 20 nM 3H-cAMP+[…] cold cAMP) and a range of inhibitors. Reactions are incubated for 30 min at 25° C. The addition of 20 uL of 8 mg/ml yitrium silicate SPA beads (Perkin Elmer) stops the reaction. The plates are sealed (TopSeal, Perkin Elmer) and the beads are allowed to settle for 8 hrs, after which they are read on the Trilux Microbeta overnight.

Human PDE4B1 = Human PDE4B1 (Homo sapiens (Human), UniProt Q07343, S133E/S654A/S659A/S661A); experiment: PDE4B1 Scintillation Proximity Assay (SPA), inhibition of enzyme activity; settings: read-out: Human PDE4B FL
Protocol: as §1
The recombinant Bacmid was isolated and used to transfect insect cells to generate a viral stock. To generate cell paste for purification, insect cells were infected with the virus stock and cells were harvested 72 hours after infection as described in Seeger, T. F. et al., Brain Research 985 (2003) 113-126. Insect cell paste was lysed and after centrifugation, the supernatant was chromatographed on Ni-NTA agarose (Qiagen) as described in Seeger, T. F. et al., Brain Research 985 (2003) 113-126. Ni-NTA agarose eluting fractions containing PDE4 were pooled, diluted with Q buffer A (20 mM Tris HCl pH 8, 5% glycerol, 1 mM TCEP) to reduce NaCl to ˜100 mM and loaded on a Source 15Q (GE Healthcare) column. After washing with Q buffer A/10% buffer B to baseline, PDE4D was eluted with a gradient from 10% to 60% of Buffer B (20 mM Tris HCl pH 8, 1 M NaCl, 5% glycerol, 1 mM TCEP). PDE4D fractions were analyzed by SDS-PAGE Coomassie blue staining, pooled based on purity, frozen and stored at −80° C.
as §3

Human PDE4A3 = Human PDE4A3 (Homo sapiens (Human), UniProt P27815); experiment: PDE4A3 Scintillation Proximity Assay (SPA), inhibition of enzyme activity; settings: read-out: Human PDE4A FL
Protocol: as §1
as §2, with “PDE4A3” for “PDE4C1”
as §3

human PDE4D3 = human PDE4D3 (Homo sapiens (Human), UniProt Q08499); experiment: PDE4D3 Scintillation Proximity Assay (SPA), inhibition of enzyme activity; settings: read-out: Human PDE4D FL
Protocol: as §1
A portion of the human PDE4D3 coding sequence (amino acids 50 to 672 from the sequence with accession number Q08499-2) was cloned into the baculovirus expression vector pFastBac (Invitrogen) engineered to include a C-terminal His6 affinity tag to aid in purification as described in Seeger, T. F. et al., Brain Research 985 (2003) 113-126. The recombinant Bacmid was isolated and used to transfect insect cells to generate a viral stock. To generate cell paste for purification, insect cells were infected and cells were harvested 72 hours after infection. Insect cell paste was lysed and after centrifugation, the supernatant was chromatographed on Ni-NTA agarose (Qiagen) as described in Seeger, T. F. et al., Brain Research 985 (2003) 113-126. Ni-NTA agarose eluting fractions containing PDE4 were pooled, diluted with Q Buffer A (50 mM Tris HCl pH 8, 4% glycerol, 100 mM NaCl, 1 mM TCEP, Protease inhibitors EDTA-free (Roche)) to reduce NaCl to ˜200 mM, and loaded on a Q Sepharose (GE Healthcare) column. After washing with Q buffer A to baseline, PDE4D was eluted with a gradient from 10% to 60% of Buffer B (50 mM Tris HCl pH 8, 1 M NaCl, 4% glycerol, 1 mM TCEP). PDE4D fractions were analyzed by SDS-PAGE Coomassie blue staining, pooled based on purity, frozen and stored at −80° C.
as §3

[1] = Table 9, geometric mean of 2-9 determinations unless otherwise indicated
[2] = Table 10, geometric mean of 2-9 determinations unless otherwise indicated

Chain of Human PDE4C1 (Q08493 2-712): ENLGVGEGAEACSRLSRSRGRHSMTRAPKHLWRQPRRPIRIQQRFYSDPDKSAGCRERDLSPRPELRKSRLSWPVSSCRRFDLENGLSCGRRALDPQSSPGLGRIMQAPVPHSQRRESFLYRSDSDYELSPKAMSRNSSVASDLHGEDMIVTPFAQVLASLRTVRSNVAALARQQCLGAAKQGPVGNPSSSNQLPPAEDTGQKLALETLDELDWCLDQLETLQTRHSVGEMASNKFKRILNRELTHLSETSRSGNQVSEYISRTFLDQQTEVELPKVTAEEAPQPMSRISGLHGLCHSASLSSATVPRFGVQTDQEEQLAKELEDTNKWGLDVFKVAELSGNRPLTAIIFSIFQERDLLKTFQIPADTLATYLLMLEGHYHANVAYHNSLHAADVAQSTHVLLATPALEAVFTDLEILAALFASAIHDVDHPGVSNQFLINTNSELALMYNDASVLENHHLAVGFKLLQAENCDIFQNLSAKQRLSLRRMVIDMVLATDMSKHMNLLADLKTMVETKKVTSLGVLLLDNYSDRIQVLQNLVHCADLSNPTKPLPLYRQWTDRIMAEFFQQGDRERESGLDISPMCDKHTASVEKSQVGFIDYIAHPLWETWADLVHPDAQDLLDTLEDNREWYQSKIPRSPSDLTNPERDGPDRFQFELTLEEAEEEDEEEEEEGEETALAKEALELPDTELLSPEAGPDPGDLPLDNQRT
Chain of human PDE4D3 (Q08499 186-808): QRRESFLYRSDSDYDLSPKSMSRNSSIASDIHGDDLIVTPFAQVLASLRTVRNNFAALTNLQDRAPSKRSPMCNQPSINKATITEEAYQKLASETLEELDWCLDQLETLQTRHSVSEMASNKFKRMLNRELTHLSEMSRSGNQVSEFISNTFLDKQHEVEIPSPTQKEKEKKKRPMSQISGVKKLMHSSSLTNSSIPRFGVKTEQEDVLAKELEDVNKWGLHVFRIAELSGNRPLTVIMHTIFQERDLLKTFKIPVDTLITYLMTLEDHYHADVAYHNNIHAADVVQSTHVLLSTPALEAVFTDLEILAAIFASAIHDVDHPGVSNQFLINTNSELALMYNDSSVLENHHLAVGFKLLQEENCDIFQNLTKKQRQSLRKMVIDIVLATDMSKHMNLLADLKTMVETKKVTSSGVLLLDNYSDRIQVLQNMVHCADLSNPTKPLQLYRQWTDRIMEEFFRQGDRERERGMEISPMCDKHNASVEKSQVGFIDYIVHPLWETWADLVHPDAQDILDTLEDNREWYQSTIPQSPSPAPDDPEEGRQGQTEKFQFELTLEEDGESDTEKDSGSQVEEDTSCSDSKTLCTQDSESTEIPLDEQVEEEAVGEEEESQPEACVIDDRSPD
Chain of Human PDE4A3 (P27815 other isoform, or with tags, fused parts or gaps): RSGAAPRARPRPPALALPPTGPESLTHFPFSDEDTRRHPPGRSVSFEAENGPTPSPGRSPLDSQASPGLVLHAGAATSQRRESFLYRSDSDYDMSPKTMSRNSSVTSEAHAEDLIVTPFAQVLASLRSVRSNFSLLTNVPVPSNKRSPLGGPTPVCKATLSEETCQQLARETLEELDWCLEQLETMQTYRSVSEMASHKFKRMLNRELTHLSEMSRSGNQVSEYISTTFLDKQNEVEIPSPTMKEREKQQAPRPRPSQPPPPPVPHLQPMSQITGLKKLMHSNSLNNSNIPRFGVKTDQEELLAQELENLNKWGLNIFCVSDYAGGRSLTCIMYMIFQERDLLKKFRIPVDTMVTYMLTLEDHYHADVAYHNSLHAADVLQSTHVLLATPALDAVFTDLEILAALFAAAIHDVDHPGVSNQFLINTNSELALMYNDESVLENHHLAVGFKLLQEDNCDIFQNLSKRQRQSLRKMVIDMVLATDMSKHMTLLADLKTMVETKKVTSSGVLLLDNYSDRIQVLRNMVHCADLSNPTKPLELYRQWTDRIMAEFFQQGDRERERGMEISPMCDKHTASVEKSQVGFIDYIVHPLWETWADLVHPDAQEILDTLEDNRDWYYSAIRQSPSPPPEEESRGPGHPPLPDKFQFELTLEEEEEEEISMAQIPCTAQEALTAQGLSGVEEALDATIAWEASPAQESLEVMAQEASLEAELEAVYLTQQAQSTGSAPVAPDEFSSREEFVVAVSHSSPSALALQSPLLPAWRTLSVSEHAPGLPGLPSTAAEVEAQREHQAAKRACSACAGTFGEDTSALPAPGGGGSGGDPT
Chain of Human PDE4B1 (Q07343 122-736 S133E/S654A/S659A/S661A): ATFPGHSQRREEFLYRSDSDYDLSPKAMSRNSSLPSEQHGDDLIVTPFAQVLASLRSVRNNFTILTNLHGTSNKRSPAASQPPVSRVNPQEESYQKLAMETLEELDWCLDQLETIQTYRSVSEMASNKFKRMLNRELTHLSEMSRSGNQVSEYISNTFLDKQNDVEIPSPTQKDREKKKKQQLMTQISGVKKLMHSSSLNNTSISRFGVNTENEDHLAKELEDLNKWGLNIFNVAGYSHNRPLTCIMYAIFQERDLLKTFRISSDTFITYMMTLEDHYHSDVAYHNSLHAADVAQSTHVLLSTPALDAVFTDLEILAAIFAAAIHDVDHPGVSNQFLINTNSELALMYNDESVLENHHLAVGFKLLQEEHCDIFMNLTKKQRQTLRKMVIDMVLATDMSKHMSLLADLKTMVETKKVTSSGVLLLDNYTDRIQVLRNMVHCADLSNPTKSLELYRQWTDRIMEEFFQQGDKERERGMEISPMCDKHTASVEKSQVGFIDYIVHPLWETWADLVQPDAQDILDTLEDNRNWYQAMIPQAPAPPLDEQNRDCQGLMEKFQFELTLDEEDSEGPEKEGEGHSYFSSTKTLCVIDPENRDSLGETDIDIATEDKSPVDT

pIC50 (Human PDE4C1; [1]) | pIC50 (Human PDE4B1; [1]) | pIC50 (Human PDE4A3; [1]) | pIC50 (human PDE4D3; [1]) | pIC50 (Human PDE4C1; [2]) | pIC50 (Human PDE4B1; [2]) | pIC50 (Human PDE4A3; [2]) | pIC50 (human PDE4D3; [2]) | Structure (SMILES)
7.55 | 7.91 | 7.81 | 6.11 |  |  |  |  | C[C@@H]1Cn2c(c(-c3ccc(Cl)cc3)c3ncccc32)C(=O)N1C1CC1 [Example 10, (7R)-10-(4-Chlorophenyl)-8-cyclopropyl-7-methyl-7,8-dihydropyrido[2′,3′:4,5]pyrrolo[1,2-a]pyrazin-9(6H)-one]
7.00 | 7.95 | 7.93 | 6.40 |  |  |  |  | Cc1ccc(C#N)cc1-c1c2n(c3cccnc13)CCN(C1CC1)C2=O [Example 60, 3-(8-Cyclopropyl-9-oxo-6,7,8,9-tetrahydropyrido[2′,3′:4,5]pyrrolo[1,2-a]pyrazin-10-yl)-4-methylbenzonitrile]
8.70 | > 9.26 | > 9.51 | 7.67 |  |  |  |  | O=C1c2c(-c3ccc(Cl)c(F)c3)c3c(n2CCN1C1CC1)CCCO3 [Example 76, 10-(4-Chloro-3-fluorophenyl)-8-cyclopropyl-3,4,7,8-tetrahydro-2H-pyrano[2′,3′:4,5]pyrrolo[1,2-a]pyrazin-9(6H)-one]
8.03 | 8.24 | 8.57 | 6.40 |  |  |  |  | Cc1cc(F)ccc1-c1c2n(c3cccnc13)CCN(C1CC1)C2=O [Example 49, 8-Cyclopropyl-10-(4-fluoro-2-methylphenyl)-7,8-dihydropyrido[2′,3′:4,5]pyrrolo[1,2-a]pyrazin-9(6H)-one]
7.45 | 7.26 | 7.67 | 5.42 |  |  |  |  | COc1ccc(-c2c3n(c4cccnc24)CCN(C2CC2)C3=O)c(F)c1 [Example 54, 8-Cyclopropyl-10-(2-fluoro-4-methoxyphenyl)-7,8-dihydropyrido[2′,3′:4,5]pyrrolo[1,2-a]pyrazin-9(6H)-one]
7.86 | > 8.90 | 8.92 | 7.05 |  |  |  |  | O=C1c2c(-c3ccc(Cl)c(F)c3)c3nccnc3n2CCN1C1CC1 [Example 8, 10-(4-Chloro-3-fluorophenyl)-8-cyclopropyl-7,8-dihydropyrrolo[1,2-a:4,5-b′]dipyrazin-9(6H)-one]
6.91 | 7.60 | 8.12 | 6.15 |  |  |  |  | Cc1cc(Cl)ccc1-c1c2n(c3cccnc13)CCN(c1ncccn1)C2=O [Example 73, 10-(4-Chloro-2-methylphenyl)-8-(pyrimidin-2-yl)-7,8-dihydropyrido[2′,3′:4,5]pyrrolo[1,2-a]pyrazin-9(6H)-one]
6.88 | 7.12 | 8.07 | 5.36 |  |  |  |  | Cc1ncc(-c2c3n(c4cccnc24)CCN(C2CC2)C3=O)cn1 [Example 21, 8-Cyclopropyl-10-(2-methylpyrimidin-5-yl)-7,8-dihydropyrido[2′,3′:4,5]pyrrolo[1,2-a]pyrazin-9(6H)-one]
6.30 | 6.95 | 6.65 | 5.43 |  |  |  |  | O=C1c2c(-c3cncnc3)c3ncccc3n2CCN1C1CC1 [Example 55, 8-Cyclopropyl-10-(pyrimidin-5-yl)-7,8-dihydropyrido[2′,3′:4,5]pyrrolo[1,2-a]pyrazin-9(6H)-one]
 |  |  |  | 7.74 | 8.58 | 8.60 | 7.54 | O=C1c2c(C3CCCC3)c3ncccc3n2CCN1C1CC1 [Example 86, 10-Cyclopentyl-8-cyclopropyl-7,8-dihydropyrido[2′,3′:4,5]pyrrolo[1,2-a]pyrazin-9(6H)-one]
 |  |  |  | 6.28 | 5.98 | 6.54 | 5.95 | CCCc1ccnc(N2CCn3c(c(-c4ccc(Cl)cc4)c4ncccc43)C2=O)n1 [Example 97, 10-(4-Chlorophenyl)-8-(4-propylpyrimidin-2-yl)-7,8-dihydropyrido[2′,3′:4,5]pyrrolo[1,2-a]pyrazin-9(6H)-one]
7.09 | 8.50 | 7.89 | 6.49 |  |  |  |  | O=C1c2c(-c3ccc(F)cc3)c3ncccc3n2CCN1C1CC1 [Example 23, 8-Cyclopropyl-10-(4-fluorophenyl)-7,8-dihydropyrido[2′,3′:4,5]pyrrolo[1,2-a]pyrazin-9(6H)-one]
7.10 | 7.71 | 7.73 | 5.68 |  |  |  |  | Cc1cc(C#N)ccc1-c1c2n(c3scnc13)CCN(C1CC1)C2=O [Example 14, 4-(7-Cyclopropyl-8-oxo-5,6,7,8-tetrahydro[1,3]thiazolo[4′,5′:4,5]pyrrolo[1,2-a]pyrazin-9-yl)-3-methylbenzonitrile]
 |  |  |  | 4.53 | < 4.52 | < 4.52 | < 4.52 | Cc1nccc(-c2c3n(c4cccnc24)CCN(C2CC2)C3=O)n1 [Example 81, 8-Cyclopropyl-10-(2-methylpyrimidin-4-yl)-7,8-dihydropyrido [2′,3′:4,5] pyrrolo[1,2-a]pyrazin-9(6H)-one]
8.07 | 8.57 | 8.55 | 6.97 |  |  |  |  | N#Cc1ccc(-c2c3ncccc3n3ccn(C4CC4)c(=O)c23)cc1 [Example 70, 4-(8-Cyclopropyl-9-oxo-8,9-dihydropyrido[2′,3′:4,5]pyrrolo[1,2-a]pyrazin-10-yl)benzonitrile]
